Here are results for two compounds from patent US5387512A, “Preparation of 3-[z-benzoxazol-2-yl)ethyl]-5-(1-hydroxyethyl)-6-methyl-2-(1H)-pyridinon e by biotransformation” (Merck & Co. Inc., priority 1992, dated 1995).

Series [1] can be described thus: Incubation With Rat Liver Slices. The class given is in vitro ADME. As to the method: Incubation of tritiated 3-[2-(benzoxazol-2-yl)ethyl]-5-ethyl-6-methyl-2-(1H)-pyridinone (parent compound/14.18 μmol) with rat liver slices (6.1 g) in 100 ml of Williams Medium E at pH. […] Ethyl acetate extraction gave a recovery of ~70% of the tritiated material, while ~25% (~9 HPLC peaks) remained in the aqueous residue.

The target in series [2] is T1, recombinant HIV reverse transcriptase (HIV RTR) (Human immunodeficiency virus type 1 group M subtype B, UniProt P04585).
T1 construct: recombinant HIV reverse transcriptase (HIV RTR)
Kind of series: Reverse Transcriptase Assay. It is filed as biochemical. The following applies: incorporation of [3H]dGMP into acid-precipitable cDNA; dGTP and poly r(C).oligo d(G)12-18 at Km; 37° C., 45 minutes; read-out: calculated IC50 value. As to the method: The assay measures the incorporation of tritiated deoxyguanosine monophosphate by recombinant HIV reverse transcriptase (HIV RTR) (or other RT) into acid-precipitable cDNA at the Km values of dGTP and poly r(C).oligo d(G)12-18.
Thirty uL of a reaction mixture containing equal volumes of: 500 mM Tris.HCl (pH 8.2), 300 mM MgCl2, 1200 mM KCl, 10 mM DTT, 400 μg/mL poly r(c).oligo d(G) [prepared by dissolving 1.5 mg (25 U) poly r(C).oligo d(G) in 1.5 ml sterile distilled H2 O and diluting to 400 μg/ml], 0.1 μCi/μl [^3 H] dGTP, 160 μM dGTP, was added to 10 μl sterile distilled H2 O, and 2.5 μl of potential inhibitor. An aliquot of 10 μL of 5 nM purified HIV RTR was added to initiate the reaction. The mixture was incubated at 37° C. for 45 minutes.
After incubation is complete, the tubes were cooled in ice for 5 minutes. Ice-cold 13% TCA containing 10 mM NaPPi (200 μl) are added and the mixture incubated on ice for 30 minutes. The precipitated cDNA is removed by filtration using presoaked glass filters [TCA, NaPPi ]. The precipitate is then washed with 1N HCl, 10 mM NaPPi.
The filter discs are then counted in a scintillation counter.
Under these conditions [dGTP] and poly r(C).oligo d(G)12-18 each are approximately equal to the appropriate Km value. Approximately 5-6,000 cpm of [^3 H] GMP are incorporated into acid-precipitable material. The RT reaction is concentration- and time-dependent.

pIC50: −log10 of the molar value.

For the compound `CCc1cc(CCc2nc3ccccc3o2)c(O)nc1C` [parent compound, 3-[2-(Benzoxazol-2-yl)ethyl]-5-ethyl-6-methyl-2-(1H)-pyridinone], the metabolised at 4 h in series [1] (tritiated compound 14.18 μmol, rat liver slices 6.1 g, Williams Medium E, pH 7.4, 37° C., four hours, read-out: metabolism) was ~32%.
The term pIC50 denotes the negative decadic logarithm of the IC50, by convention in mol/L. `Cc1[nH]c(=O)c(CCc2nc3ccccc3o2)cc1C(C)O` (stereo not drawn) [compound (I), 3-[2-(benzoxazol-2-yl)ethyl]-5-(1-hydroxyethyl)-6-methyl-2(1H)-pyridinone]: the pIC50 in series [2] is ~6.15. Besides, the “radioactive HPLC peak, share of the total metabolites” value in series [1] (ethyl acetate extract after four hours incubation of parent compound with rat liver slices) is given as ~ 37%.
